{
  "source": "patent US20220268780A1",
  "about": "“METHODS OF PREDICTING ENDOMETRIAL RECEPTIVITY” (HUDSON INSTITUTE OF MEDICAL RESEARCH, priority 2019, published 2022)",
  "system": "PCX mRNA in Ishikawa cells",
  "assay": "Transfection of miRNA mimics into Ishikawa cells, PCX mRNA by real-time RT-PCR",
  "assay_type": "cell-based, human",
  "settings": "mimic 5 μm, 24 h after transfection",
  "experimental": "To confirm that these two miRNAs can directly down-regulate PCX, mimics of these miRNAs were transfected into a human endometrial epithelial Ishikawa cell line and the impact on the level of PCX expression examined.\nIshikawa cells were cultured overnight in a 12-well plate (3.0×10^5 per well) in complete medium containing MEM (Thermo Fisher Scientific) supplemented with 10% FCS, 1% L-glutamine (Sigma) and 1% antibiotic-antimycotic. The following day, cells were replenished with Opti-MEM for transfection. Control and miRNA mimics (5 μm, all from Thermo Fisher Scientific) were transfected into Ishikawa cells using Lipofectamine RNAiMAX Transfection Reagent (Thermo Fisher Scientific) for 24, 48, 72 h respectively, and PCX mRNA levels were examined by real-time RT-PCR. Combination of the two miRNAs (5 μm each) was also tested.",
  "data": [
    {"substance": "miR-145: miRNA mimic (Thermo Fisher Scientific); sequence GUCCAGUUUUCCCAGGAAUCCCU, SEQ ID NO: 33 (chemistry not given here)", "values": [
      {"measurement": "repression of PCX mRNA", "result": "~34", "unit": "%"}
    ]},
    {"substance": "miR-199: miRNA mimic (Thermo Fisher Scientific); sequence CCCAGUGUUCAGACUACCUGUUC, SEQ ID NO: 31 (chemistry not given here)", "values": [
      {"measurement": "repression of PCX mRNA", "result": "~34", "unit": "%"}
    ]}
  ]
}
